Source: paper PMC8320704 (Journal of medicinal chemistry, 2015)
Where two headings read alike, the source gives them in different places.

Tests used:
HIV-1 RT RNase H = HIV-1 RT RNase H (Human immunodeficiency virus type 1 group M subtype B, UniProt P04585); experiment: HIV-1 RT RNase H inhibition; type: biochemical
HIV-1 IN (3′-P) = HIV-1 IN (3′-P) (Human immunodeficiency virus type 1 group M subtype B, UniProt P04585); experiment: HIV-1 IN gel-based assay, 3′-processing; type: biochemical
HIV-1 IN (ST) = HIV-1 IN (ST) (Human immunodeficiency virus type 1 group M subtype B, UniProt P04585); experiment: HIV-1 IN gel-based assay, strand transfer; type: biochemical

SMILES	SI = CC50/EC50 (HIV-1(IIIB); Table 1)	IC50 (HIV-1 IN (3′-P)) [µM]	other results
O=C(O)/C(O)=C/C(=O)c1cn(Cc2cccc(Cl)c2F)c2ccccc2c1=O [11s, 4-[1-(3-Chloro-2-fluorophenyl)methyl-4(1H)-quinolinon-3-yl]-2-hydroxy-4-oxo-2-butenoic Acid]	>2.1		
CCOC(=O)/C(O)=C/C(=O)c1cn(Cc2c(Cl)cccc2Cl)c2ccccc2c1=O [10p, 4-[1-(2,6-Dichlorophenyl)methyl-4(1H)-quinolinon-3-yl]-2-hydroxy-4-oxo-2-butenoic Acid Ethyl Ester]	>1.7		IC50 (HIV-1 RT RNase H; RNase H IC50, Table 1): > 50 µM
O=C(O)/C(O)=C/C(=O)c1cn(Cc2c(F)cccc2F)c2ccccc2c1=O [11l, 4-[1-(2,6-Difluorophenyl)methyl-4(1H)-quinolinon-3-yl]-2-hydroxy-4-oxo-2-butenoic Acid]	>6.2		IC50 (HIV-1 RT RNase H; RNase H IC50, text): ~10 µM
CCOC(=O)/C(O)=C/C(=O)c1cn(Cc2ccc(F)c(F)c2)c2ccccc2c1=O [10m, 4-[1-(3,4-Difluorophenyl)methyl-4(1H)-quinolinon-3-yl]-2-hydroxy-4-oxo-2-butenoic Acid Ethyl Ester]	>5.1		
CCOC(=O)/C(O)=C/C(=O)c1cn(Cc2ccc(O)cc2)c2ccccc2c1=O [10g, 4-[1-(4-Hydroxyphenyl)methyl-4(1H)-quinolinon-3-yl]-2-hydroxy-4-oxo-2-butenoic Acid Ethyl Ester]	>1.6	> 333	
CCOC(=O)/C(O)=C/C(=O)c1cn(Cc2ccc3ccccc3n2)c2ccccc2c1=O [10aa, 2-Hydroxy-4-oxo-4-(4-oxo-1-(quinolin-2-ylmethyl)-1,4-dihydroquinolin-3-yl)but-2-enoic Acid Ethyl Ester]		> 1000	
O=C(O)/C(O)=C/C(=O)c1cn(Cc2ccc(F)cc2F)c2ccccc2c1=O [11j, 4-[1-(2,4-Difluorophenyl)methyl-4(1H)-quinolinon-3-yl]-2-hydroxy-4-oxo-2-butenoic Acid]	>3.6		
CCOC(=O)/C(O)=C/C(=O)c1cn(CCCCc2ccccc2)c2ccccc2c1=O [10x, 2-Hydroxy-4-oxo-4-(4-oxo-1-(4-phenylbutyl)-1,4-dihydroquinolin-3-yl)but-2-enoic Acid Ethyl Ester]		> 333	
CCOC(=O)/C(O)=C/C(=O)c1cn(Cc2ccccc2F)c2cc(Cl)ccc2c1=O [10w, 4-[7-Chloro-1-(2-fluorophenyl)methyl-4(1H)-quinolinon-3-yl]-2-hydroxy-4-oxo-2-butenoic Acid Ethyl Ester]	>4.5		
O=C(O)/C(O)=C/C(=O)c1cn(Cc2cccc(F)c2)c2ccccc2c1=O [11d, 4-[1-(3-Fluorophenyl)methyl-4(1H)-quinolinon-3-yl]-2-hydroxy-4-oxo-2-butenoic Acid]	>1.8		
CCOC(=O)/C(O)=C/C(=O)c1cn(Cc2ccc(F)c(Cl)c2)c2c(Cl)cccc2c1=O [10u, 8-Chloro-4-[1-(3-chloro-4-fluorophenyl)methyl-4(1H)-quinolinon-3-yl]-2-hydroxy-4-oxo-2-butenoic Acid Ethyl Ester]		> 333	
CCOC(=O)/C(O)=C/C(=O)c1cn(Cc2ccc(F)cc2F)c2ccccc2c1=O [10j, 4-[1-(2,4-Difluorophenyl)methyl-4(1H)-quinolinon-3-yl]-2-hydroxy-4-oxo-2-butenoic Acid Ethyl Ester]	>86.2		selectivity index (SI) (HIV-1(IIIB)): > 86.2
O=C(O)/C(O)=C/C(=O)c1cn(Cc2ccccc2F)c2cc(Cl)ccc2c1=O [11w, 4-[7-Chloro-1-(2-fluorophenyl)methyl-4(1H)-quinolinon-3-yl]-2-hydroxy-4-oxo-2-butenoic Acid]	>2.9		
O=C(O)/C(O)=C/C(=O)c1cn(Cc2cc(F)ccc2F)c2ccccc2c1=O [11k, 4-[1-(2,5-Difluorophenyl)methyl-4(1H)-quinolinon-3-yl]-2-hydroxy-4-oxo-2-butenoic Acid]			IC50 (HIV-1 RT RNase H; RNase H IC50, Table 1): > 50 µM
CCOC(=O)/C(O)=C/C(=O)c1cn(Cc2ccccc2F)c2ccccc2c1=O [10b, 4-[1-(2-Fluorophenyl)methyl-4(1H)-quinolinon-3-yl]-2-hydroxy-4-oxo-2-butenoic Acid Ethyl Ester]	>33.4		
CCOC(=O)/C(O)=C/C(=O)c1cn(Cc2ccccc2)c2ccccc2c1=O [10a, 4-[1-Phenylmethyl-4(1H)-quinolinon-3-yl]-2-hydroxy-4-oxo-2-butenoic Acid Ethyl Ester]	>50	> 1000	
O=C(O)/C(O)=C/C(=O)c1cn(Cc2ccccc2F)c2ccccc2c1=O [11b, 4-[1-(2-Fluorophenyl)methyl-4(1H)-quinolinon-3-yl]-2-hydroxy-4-oxo-2-butenoic Acid]	>19.2		IC50 (HIV-1 RT RNase H; RNase H IC50, Table 1): > 50 µM
O=C(O)/C(O)=C/C(=O)c1cn(Cc2cc(F)cc(F)c2)c2ccccc2c1=O [11n, 4-[1-(3,5-Difluorophenyl)methyl-4(1H)-quinolinon-3-yl]-2-hydroxy-4-oxo-2-butenoic Acid]			IC50 (HIV-1 RT RNase H; RNase H IC50, Table 1): > 50 µM

SMILES	SI = CC50/EC50 (HIV-1(IIIB); Table 1)	IC50 (HIV-1 IN (3′-P)) [µM]	other results
COc1ccccc1Cn1cc(C(=O)/C=C(\O)C(=O)O)c(=O)c2ccccc21 [11c, 4-[1-(2-Methoxyphenyl)methyl-4(1H)-quinolinon-3-yl]-2-hydroxy-4-oxo-2-butenoic Acid]	>5.4	> 4.1	
CCOC(=O)/C(O)=C/C(=O)c1cn(Cc2ccccc2OC)c2ccccc2c1=O [10c, 4-[1-(2-Methoxyphenyl)methyl-4(1H)-quinolinon-3-yl]-2-hydroxy-4-oxo-2-butenoic Acid Ethyl Ester]	>19.2	> 333	
CCOC(=O)/C(O)=C/C(=O)c1cn(Cc2c(F)cccc2F)c2ccccc2c1=O [10l, 4-[1-(2,6-Difluorophenyl)methyl-4(1H)-quinolinon-3-yl]-2-hydroxy-4-oxo-2-butenoic Acid Ethyl Ester]	>250	> 12.3	selectivity index (SI) (HIV-1(IIIB)): > 250
CCOC(=O)/C(O)=C/C(=O)c1cn(Cc2ccncc2)c2ccccc2c1=O [10z, 2-Hydroxy-4-oxo-4-(4-oxo-1-(pyridin-4-ylmethyl)-1,4-dihydroquinolin-3-yl)but-2-enoic Acid Ethyl Ester]		> 333	
O=C(O)/C(O)=C/C(=O)c1cn(Cc2ccccc2F)c2c(Cl)cccc2c1=O [11v, 8-Chloro-4-[1-(2-fluorophenyl)methyl-4(1H)-quinolinon-3-yl]-2-hydroxy-4-oxo-2-butenoic Acid]			IC50 (HIV-1 RT RNase H; RNase H IC50, Table 1): > 50 µM
COc1ccc(Cn2cc(C(=O)/C=C(\O)C(=O)O)c(=O)c3ccccc32)cc1 [11h, 4-[1-(4-Methoxyphenyl)methyl-4(1H)-quinolinon-3-yl]-2-hydroxy-4-oxo-2-butenoic Acid]			IC50 (HIV-1 RT RNase H; RNase H IC50, Table 1): > 50 µM
CCOC(=O)/C(O)=C/C(=O)c1cn(Cc2ccc(F)c(Cl)c2)c2ccccc2c1=O [10t, 4-[1-(3-Chloro-4-fluorophenyl)methyl-4(1H)-quinolinon-3-yl]-2-hydroxy-4-oxo-2-butenoic Acid Ethyl Ester]	>2.9		
CCOC(=O)/C(O)=C/C(=O)c1cn(Cc2cccc(Cl)c2F)c2ccccc2c1=O [10s, 4-[1-(3-Chloro-2-fluorophenyl)methyl-4(1H)-quinolinon-3-yl]-2-hydroxy-4-oxo-2-butenoic Acid Ethyl Ester]	>5		
COc1cccc(Cn2cc(C(=O)/C=C(\O)C(=O)O)c(=O)c3ccccc32)c1 [11e, 4-[1-(3-Methoxyphenyl)methyl-4(1H)-quinolinon-3-yl]-2-hydroxy-4-oxo-2-butenoic Acid]		> 4.1	
O=C(O)/C(O)=C/C(=O)c1cn(Cc2ccc3ccccc3c2)c2ccccc2c1=O [11y, 2-Hydroxy-4-(1-(naphthalen-2-ylmethyl)-4-oxo-1,4-dihydroquinolin-3-yl)-4-oxobut-2-enoic Acid]			IC50 (HIV-1 IN (ST)): < 0.45 µM; SI = CC50/EC50 (HIV-1(IIIB); Table 2): >10.4
O=C(O)/C(O)=C/C(=O)c1cn(Cc2ccc(F)c(F)c2)c2ccccc2c1=O [11m, 4-[1-(3,4-Difluorophenyl)methyl-4(1H)-quinolinon-3-yl]-2-hydroxy-4-oxo-2-butenoic Acid]	>3.1		IC50 (HIV-1 RT RNase H; RNase H IC50, Table 1): > 50 µM
O=C(O)/C(O)=C/C(=O)c1cn(Cc2ccc(Cl)cc2)c2ccccc2c1=O [11f, 4-[1-(4-Chlorophenyl)methyl-4(1H)-quinolinon-3-yl]-2-hydroxy-4-oxo-2-butenoic Acid]	>57.5		selectivity index (SI) (HIV-1(IIIB)): > 57.5; IC50 (HIV-1 RT RNase H; RNase H IC50, Table 1): > 50 µM
CCOC(=O)/C(O)=C/C(=O)c1cn(Cc2cc(F)cc(F)c2)c2ccccc2c1=O [10n, 4-[1-(3,5-Difluorophenyl)methyl-4(1H)-quinolinon-3-yl]-2-hydroxy-4-oxo-2-butenoic Acid Ethyl Ester]	>1.5		
CCOC(=O)/C(O)=C/C(=O)c1cn(Cc2ccc3ccccc3c2)c2ccccc2c1=O [10y, 2-Hydroxy-4-(1-(naphthalen-2-ylmethyl)-4-oxo-1,4-dihydroquinolin-3-yl)-4-oxobut-2-enoic Acid Ethyl Ester]		> 333	
CCOC(=O)/C(O)=C/C(=O)c1cn(Cc2cccc(OC)c2)c2ccccc2c1=O [10e, 4-[1-(3-Methoxyphenyl)methyl-4(1H)-quinolinon-3-yl]-2-hydroxy-4-oxo-2-butenoic Acid Ethyl Ester]		> 333	
CCOC(=O)/C(O)=C/C(=O)c1cn(Cc2cccc(F)c2)c2ccccc2c1=O [10d, 4-[1-(3-Fluorophenyl)methyl-4(1H)-quinolinon-3-yl]-2-hydroxy-4-oxo-2-butenoic Acid Ethyl Ester]	>29.4	> 12.3	
O=C(O)/C(O)=C/C(=O)c1cn(Cc2ccc(O)cc2)c2ccccc2c1=O [11g, 4-[1-(4-Hydroxyphenyl)methyl-4(1H)-quinolinon-3-yl]-2-hydroxy-4-oxo-2-butenoic Acid]		> 37	IC50 (HIV-1 RT RNase H; RNase H IC50, text): ~10 µM
O=C(O)/C(O)=C/C(=O)c1cn(Cc2ccncc2)c2ccccc2c1=O [11z, 2-Hydroxy-4-oxo-4-(4-oxo-1-(pyridin-4-ylmethyl)-1,4-dihydroquinolin-3-yl)but-2-enoic Acid]		> 1000	
